This is an account of results in US20020173475A1 (priority 2001, published 2002).

One experiment has as its system PV 5′ UTR RNA. The experiment is classed as binding, poliovirus.
Experiment [1] deals with IRES initiated translation. Conditions: cited from earlier work.

Take AALEAKICHQIEQQFGDF [Peptide 772]: the “binding to PV 5′ UTR RNA relative to wild-type La antigen” value in the experiment with PV 5′ UTR RNA is on record as “dramatically reduced binding”. Turning to AALEAKICHQIEYYFGDF [LAP], the “inhibition of IRES initiated translation” value in experiment [1] is “inhibit this translation”. Turning to AALEAKICHQIEYYQGDQ [Peptide 771], the “binding to PV 5′ UTR RNA relative to wild-type La antigen” value with PV 5′ UTR RNA is on record as “dramatically reduced binding”.
